Results taken from ChEMBL document CHEMBL3871268, “Chalcogen containing heterocyclic scaffolds: New hybrids with antitumoral activity” (Eur J Med Chem, 2016).

Key:
[1] = Cell cycle arrest in human MCF7 cells assessed as M1 quadrant cells at 100 nM measured after 48 hrs by propidium iodide staining-based flow cytometry (reference value: 98.1%); assay type: functional
[2] = Cell cycle arrest in human MCF7 cells assessed as sub-diploid cells at 100 nM measured after 48 hrs by propidium iodide staining-based flow cytometry (reference value: 1.9%); assay type: functional

`COC[C@H]1OC(=O)c2coc3c2[C@@]1(C)C1=C(C3=O)[C@@H]2CCC(=O)[C@@]2(C)C[C@H]1OC(C)=O` gave an Activity [1] of 93.8% and an Activity [2] of 6.2%.
